Experiments:
wild oat = experiment: Test B preemergence/postemergence greenhouse plant response rating 0 to 10; type: in vivo, Avena fatua; conditions: POSTEMERGENCE, 0 to 10 scale
Procedure, shortened: (§1)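 Both application timings were run together: seeds got compound preemergence, and established seedlings (two to eighteen cm) got it postemergence. Non-phytotoxic solvent carried the chemical. Ratings are visual, versus controls, at twelve to sixteen days.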

blackgrass [1] = experiment: as above; type: in vivo, Alopecurus myosuroides; conditions: for Plant response rating, Blackgrass: 0 to 10 scale
Procedure, shortened: as §1

sugar beet = experiment: as above; type: in vivo, Beta vulgaris; conditions: 0 to 10 scale
Procedure, shortened: as §1

cocklebur = experiment: as above; type: in vivo, Xanthium pensylvanicum; conditions: for Plant response rating, Cocklebur: 0 to 10 scale
Procedure, shortened: as §1

wheat = experiment: Test C preemergence/postemergence greenhouse plant response rating 0 to 100; type: in vivo, Triticum aestivum; conditions: POSTEMERGENCE; for Plant response rating, Wheat: 0 to 100 scale
Procedure, shortened: (§2)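 Compounds in non-phytotoxic solvent went onto sandy loam before emergence (seeded one day earlier) or onto plants at the one-to-four leaf stage. Duck salad was treated via flood water (~2.5 cm, maintained) over silt loam.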

bedstraw = experiment: Test B preemergence/postemergence greenhouse plant response rating 0 to 10; type: in vivo, Galium aparine; conditions: for Plant response rating, Bedstraw: 0 to 10 scale
Procedure, shortened: as §1

barnyardgrass = experiment: Test C flood test plant response rating 0 to 100; type: in vivo, Echinochloa crus-galli; conditions: for Plant response rating, Barnyardgrass: flood test species listed under POSTEMERGENCE, 0 to 100 scale
Procedure, shortened: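 Compounds in non-phytotoxic solvent applied preemergence to sandy loam one day after planting, postemergence at the 1–4 leaf stage, or to ~2.5 cm floodwater over silt loam.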

cotton = experiment: Test C preemergence/postemergence greenhouse plant response rating 0 to 100; type: in vivo, Gossypium hirsutum; conditions: POSTEMERGENCE; for Plant response rating, Cotton: 0 to 100 scale
Procedure, shortened: as §2

pigweed = experiment: as above; type: in vivo, Amaranthusretroflexus; conditions: POSTEMERGENCE; for Plant response rating Pigweed: 0 to 100 scale
Procedure, shortened: as §2

morningglory = experiment: Test B preemergence/postemergence greenhouse plant response rating 0 to 10; type: in vivo, Ipomoea hederacea; conditions: 0 to 10 scale
Procedure, shortened: as §1

ryegrass = experiment: Test C preemergence/postemergence greenhouse plant response rating 0 to 100; type: in vivo, Lolium multiflorum; conditions: POSTEMERGENCE; for Plant response rating Ryegrass: 0 to 100 scale
Procedure, shortened: as §2

sandbur = experiment: Test G preemergence/postemergence greenhouse plant response rating 0 to 100; type: in vivo, Cenchrus echinatus; conditions: 0 to 100 scale
Procedure, shortened: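 Pre- and postemergence treatments used compound in non-phytotoxic solvent on potted greenhouse plants grown from seed, rhizome or plant part. Postemergence plants were at the 2–4 leaf stage; damage was assessed by eye versus untreated pots after 13–21 days.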

blackgrass [2] = experiment: Test C preemergence/postemergence greenhouse plant response rating 0 to 100; type: in vivo, Alopecurus myosuroides; conditions: POSTEMERGENCE; for Plant response rating, Blackgrass: 0 to 100 scale
Procedure, shortened: as §2

[3] = Rate 4 g/ha, under POSTEMERGENCE head (flood test species)
[4] = Rate 16 g/ha, under POSTEMERGENCE head (flood test species)

CC(C)COc1cc(-c2nn3c(c2Cl)CCCC3)c(F)cc1Cl [Compound 30]
95: Plant response rating (0 to 100), Barnyardgrass (barnyardgrass; [4])
40: Plant response rating (0 to 100), Ryegrass (ryegrass; Rate 16 g/ha)
5: Plant response rating, Wild oat (wild oat; Rate 50 g/ha) | Plant response rating (0 to 10 scale), Blackgrass (blackgrass [1]; POSTEMERGENCE, Rate 50 g/ha) | Plant response rating, Blackgrass (blackgrass [1]; POSTEMERGENCE, Rate 200 g/ha) | Plant response rating, Sugar beet (sugar beet; PREEMERGENCE, Rate 50 g/ha) | Plant response rating, Morningglory (morningglory; Rate 200 g/ha, PREEMERGENCE)
9: Plant response rating, Sugar beet (sugar beet; Rate 200 g/ha, PREEMERGENCE) | Plant response rating, Bedstraw (bedstraw; Rate 200 g/ha, PREEMERGENCE) | Plant response rating, Morningglory (morningglory; Rate 200 g/ha, POSTEMERGENCE)
7: Plant response rating (0 to 10 scale), Cocklebur (cocklebur; POSTEMERGENCE, Rate 50 g/ha)
10: Plant response rating, Sugar beet (sugar beet; POSTEMERGENCE, Rate 50 g/ha) | Plant response rating, Sugar beet (sugar beet; Rate 200 g/ha, POSTEMERGENCE) | Plant response rating, Cocklebur (cocklebur; POSTEMERGENCE, Rate 200 g/ha) | Plant response rating, Bedstraw (bedstraw; POSTEMERGENCE, Rate 200 g/ha) | Plant response rating (0 to 100), Blackgrass (blackgrass [2]; Rate 4 g/ha)
20: Plant response rating (0 to 100), Wheat (wheat; Rate 4 g/ha) | Plant response rating (0 to 100), Ryegrass (ryegrass; Rate 4 g/ha) | Plant response rating (0 to 100), Blackgrass (blackgrass [2]; Rate 16 g/ha)
100: Plant response rating, Barnyardgrass (barnyardgrass; 62 g/ha) | Plant response rating, Barnyardgrass (barnyardgrass; 250 g/ha) | Plant response rating, Cotton (cotton; 62 g/ha) | Plant response rating, Cotton (cotton; 250 g/ha) | Plant response rating (0 to 100), Cotton (cotton; Rate 4 g/ha) | Plant response rating (0 to 100), Cotton (cotton; Rate 16 g/ha) | Plant response rating Pigweed (pigweed; 62 g/ha) | Plant response rating Pigweed (pigweed; 250 g/ha) | Plant response rating (0 to 100), Pigweed (pigweed; Rate 4 g/ha) | Plant response rating (0 to 100), Pigweed (pigweed; Rate 16 g/ha)
60: Plant response rating, Wheat (wheat; 62 g/ha) | Plant response rating Ryegrass (ryegrass; 62 g/ha) | Plant response rating, Blackgrass (blackgrass [2]; 62 g/ha)
85: Plant response rating (0 to 100), Barnyardgrass (barnyardgrass; [3])
0: Plant response rating, Blackgrass (blackgrass [1]; PREEMERGENCE, Rate 50 g/ha) | Plant response rating, Blackgrass (blackgrass [1]; Rate 200 g/ha, PREEMERGENCE) | Plant response rating, Cocklebur (cocklebur; PREEMERGENCE, Rate 50 g/ha) | Plant response rating, Bedstraw (bedstraw; PREEMERGENCE, Rate 50 g/ha) | Plant response rating, S. Sandbur (sandbur; POSTEMERGENCE, Rate 125 g/ha) | Plant response rating, S. Sandbur (sandbur; POSTEMERGENCE, Rate 250 g/ha) | Plant response rating, S. Sandbur (sandbur; PREEMERGENCE, Rate 125 g/ha) | Plant response rating, S. Sandbur (sandbur; PREEMERGENCE, Rate 250 g/ha)
30: Plant response rating (0 to 100), Wheat (wheat; Rate 16 g/ha)
2: Plant response rating, Morningglory (morningglory; PREEMERGENCE, Rate 50 g/ha)
4: Plant response rating, Cocklebur (cocklebur; Rate 200 g/ha, PREEMERGENCE)
8: Plant response rating (0 to 10 scale), Bedstraw (bedstraw; POSTEMERGENCE, Rate 50 g/ha) | Plant response rating, Morningglory (morningglory; POSTEMERGENCE, Rate 50 g/ha)
6: Plant response rating, Wild oat (wild oat; Rate 200 g/ha)
90: Plant response rating, Wheat (wheat; 250 g/ha)
80: Plant response rating Ryegrass (ryegrass; 250 g/ha) | Plant response rating, Blackgrass (blackgrass [2]; 250 g/ha)

CC(C)N1C(=O)COc2cc(F)c(-c3nn4c(c3Cl)CCCC4)cc21 [Compound 31]
40: Plant response rating, Wheat (wheat; 62 g/ha) | Plant response rating Ryegrass (ryegrass; 62 g/ha) | Plant response rating, Blackgrass (blackgrass [2]; 62 g/ha)
30: Plant response rating (0 to 100), Wheat (wheat; Rate 4 g/ha) | Plant response rating (0 to 100), Wheat (wheat; Rate 16 g/ha) | Plant response rating (0 to 100), Ryegrass (ryegrass; Rate 16 g/ha) | Plant response rating (0 to 100), Blackgrass (blackgrass [2]; Rate 16 g/ha)
3: Plant response rating, Blackgrass (blackgrass [1]; PREEMERGENCE, Rate 10 g/ha) | Plant response rating, Cocklebur (cocklebur; PREEMERGENCE, Rate 50 g/ha)
6: Plant response rating, Wild oat (wild oat; Rate 50 g/ha) | Plant response rating, Blackgrass (blackgrass [1]; PREEMERGENCE, Rate 50 g/ha)
95: Plant response rating (0 to 100), Pigweed (pigweed; Rate 1 g/ha)
0: Plant response rating, Cocklebur (cocklebur; PREEMERGENCE, Rate 10 g/ha) | Plant response rating, S. Sandbur (sandbur; POSTEMERGENCE, Rate 125 g/ha) | Plant response rating, S. Sandbur (sandbur; POSTEMERGENCE, Rate 250 g/ha) | Plant response rating, S. Sandbur (sandbur; PREEMERGENCE, Rate 125 g/ha) | Plant response rating, S. Sandbur (sandbur; PREEMERGENCE, Rate 250 g/ha)
9: Plant response rating, Cocklebur (cocklebur; POSTEMERGENCE, Rate 10 g/ha) | Plant response rating (0 to 10 scale), Cocklebur (cocklebur; POSTEMERGENCE, Rate 50 g/ha) | Plant response rating, Morningglory (morningglory; POSTEMERGENCE, Rate 10 g/ha)
100: Plant response rating, Barnyardgrass (barnyardgrass; 62 g/ha) | Plant response rating, Cotton (cotton; 62 g/ha) | Plant response rating (0 to 100), Cotton (cotton; Rate 4 g/ha) | Plant response rating (0 to 100), Cotton (cotton; Rate 16 g/ha) | Plant response rating Pigweed (pigweed; 62 g/ha) | Plant response rating (0 to 100), Pigweed (pigweed; Rate 4 g/ha) | Plant response rating (0 to 100), Pigweed (pigweed; Rate 16 g/ha)
5: Plant response rating, Wild oat (wild oat; Rate 10 g/ha) | Plant response rating, Morningglory (morningglory; PREEMERGENCE, Rate 50 g/ha)
65: Plant response rating (0 to 100), Barnyardgrass (barnyardgrass; [3])
20: Plant response rating (0 to 100), Barnyardgrass (barnyardgrass; POSTEMERGENCE section, flood test, Rate 1 g/ha) | Plant response rating (0 to 100), Ryegrass (ryegrass; Rate 4 g/ha) | Plant response rating (0 to 100), Blackgrass (blackgrass [2]; Rate 4 g/ha)
90: Plant response rating (0 to 100), Barnyardgrass (barnyardgrass; [4]) | Plant response rating (0 to 100), Cotton (cotton; Rate 1 g/ha)
10: Plant response rating, Sugar beet (sugar beet; POSTEMERGENCE, Rate 10 g/ha) | Plant response rating, Sugar beet (sugar beet; POSTEMERGENCE, Rate 50 g/ha) | Plant response rating, Sugar beet (sugar beet; PREEMERGENCE, Rate 50 g/ha) | Plant response rating (0 to 100), Wheat (wheat; Rate 1 g/ha) | Plant response rating, Bedstraw (bedstraw; POSTEMERGENCE, Rate 10 g/ha) | Plant response rating (0 to 10 scale), Bedstraw (bedstraw; POSTEMERGENCE, Rate 50 g/ha) | Plant response rating, Morningglory (morningglory; POSTEMERGENCE, Rate 50 g/ha) | Plant response rating (0 to 100), Ryegrass (ryegrass; Rate 1 g/ha) | Plant response rating (0 to 100), Blackgrass (blackgrass [2]; Rate 1 g/ha)
4: Plant response rating, Blackgrass (blackgrass [1]; POSTEMERGENCE, Rate 10 g/ha) | Plant response rating (0 to 10 scale), Blackgrass (blackgrass [1]; POSTEMERGENCE, Rate 50 g/ha)

— patent US6358885B1, “Substituted phenylheterocyclic herbicides” (Mississippi State University, priority 1992, dated 2002)
